The values below come from ChEMBL document CHEMBL2406958, “Development of a chimeric c-Src kinase and HDAC inhibitor” (ACS Med Chem Lett, 2013).

The target of data set [1] is T1, Histone deacetylase 1 (Homo sapiens, UniProt Q13547). The experiment in a line: Inhibition of HDAC1 (unknown origin) by Fluor de Lys based assay.
Data set [2] is described as follows: Therapeutic index, ratio of GI50 for human HMEC to GI50 for human SK-BR-3 cells. The settings on record: HMEC cells versus SK-BR-3 cells, read-out: RatioGI50.
The test system of another data set is HMEC. Put plainly: Cytotoxicity against human HMEC after 72 hrs by WST1 assay. Format: cell-based.
In another data set the test system is SK-BR-3. Put plainly: Cytotoxicity against human SK-BR-3 cells after 72 hrs by WST1 assay. It is filed as functional.
In data set [3] the target is T2, Proto-oncogene tyrosine-protein kinase Src (Homo sapiens, UniProt P12931). Put plainly: Inhibition of c-Src (unknown origin) by fluorescence assay.
T2 sequence (P12931 2-536 limits assumed): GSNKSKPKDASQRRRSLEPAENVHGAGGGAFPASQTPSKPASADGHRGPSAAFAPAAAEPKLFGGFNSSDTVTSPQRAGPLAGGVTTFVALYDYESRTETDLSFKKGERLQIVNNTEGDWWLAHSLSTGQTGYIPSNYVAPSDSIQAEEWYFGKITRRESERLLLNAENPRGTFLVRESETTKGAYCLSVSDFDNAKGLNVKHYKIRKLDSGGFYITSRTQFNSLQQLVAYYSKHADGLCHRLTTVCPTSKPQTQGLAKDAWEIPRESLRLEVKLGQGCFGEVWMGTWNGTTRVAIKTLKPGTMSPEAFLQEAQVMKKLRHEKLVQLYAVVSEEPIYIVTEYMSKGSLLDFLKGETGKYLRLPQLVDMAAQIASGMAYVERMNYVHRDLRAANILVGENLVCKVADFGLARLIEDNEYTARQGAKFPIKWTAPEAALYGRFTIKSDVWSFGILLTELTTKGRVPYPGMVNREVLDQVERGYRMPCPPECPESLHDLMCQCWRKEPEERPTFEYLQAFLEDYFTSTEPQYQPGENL
The test system of a further data set is SW-620. Put plainly: Cytotoxicity against human SW620 cells after 48 hrs by SRB assay. Format: functional. The following applies: SW-620, 48 h.
The subject of a further data set is Malme-3M. Put plainly: Cytotoxicity against human MALME-3M cells after 48 hrs by SRB assay. It is filed as functional. A general note: The SRB assay estimates cell density from bound dye.
Another data set deals with HCT-116. The experiment in a line: Cytotoxicity against human HCT116 cells after 48 hrs by SRB assay. Format: functional. The following applies: HCT-116, 48 h.
A further data set relates to Hs-578T. The experiment in a line: Cytotoxicity against human Hs578T cells after 48 hrs by SRB assay. It is filed as functional.
Another data set relates to MDA-MB-231. Put plainly: Cytotoxicity against human MDA-MB-231 cells after 48 hrs by SRB assay. Format: functional. The settings on record: MDA-MB-231, 48 h.
The next data set deals with DU-145. Put plainly: Cytotoxicity against human DU145 cells after 48 hrs by SRB assay. The following applies: DU-145, 48 h. Format: functional.
A further data set has as its system MCF7. Put plainly: Cytotoxicity against human MCF7 cells after 48 hrs by SRB assay. It is filed as functional. The settings on record: MCF7, 48 h.
The subject of another data set is U-251. Put plainly: Cytotoxicity against human U251 cells after 48 hrs by SRB assay. It is filed as functional. The following applies: U-251, 48 h.
Another data set deals with KM12. The experiment in a line: Cytotoxicity against human KM12 cells after 48 hrs by SRB assay. It is filed as functional. The settings on record: KM12, 48 h.
Data set [4] concerns the target Tyrosine-protein kinase HCK (Homo sapiens, UniProt P08631). Put plainly: Inhibition of HCK (unknown origin).
Data set [5] is described as follows: Cytotoxicity against human NCI60 cells after 48 hrs by SRB assay. Format: functional. The settings on record: NCI60, 48 h.
For the next data set, the target named is Histone deacetylase 11 (Homo sapiens, UniProt Q96DB2). Put plainly: Inhibition of HDAC11 (unknown origin) using fluorogenic peptide from p53 residues (379 to 382) (RHKK(Ac)) as substrate by fluorescence assay.
Data set [6] has as its target Polyamine deacetylase HDAC10 (Homo sapiens, UniProt Q969S8). The experiment in a line: Inhibition of HDAC10 (unknown origin) using fluorogenic peptide from p53 residues (379 to 382) (RHKK(Ac)) as substrate by fluorescence assay.
In a further data set the target is Histone deacetylase 9 (Homo sapiens, UniProt Q9UKV0). The experiment in a line: Inhibition of HDAC9 (unknown origin) using Boc-Lys(trifluoroacetyl)-AMC as substrate by fluorescence assay.
Another data set concerns the target Histone deacetylase 8 (Homo sapiens, UniProt Q9BY41). The experiment in a line: Inhibition of HDAC8 (unknown origin) using fluorogenic peptide from p53 residues (379 to 382) (RHK(Ac)K(Ac)) as substrate by fluorescence assay.
Data set [7] deals with Protein deacetylase HDAC6 (Homo sapiens, UniProt Q9UBN7). Put plainly: Inhibition of HDAC6 (unknown origin) using fluorogenic peptide from p53 residues (379 to 382) (RHKK(Ac)) as substrate by fluorescence assay.
The next data set addresses Histone deacetylase 5 (Homo sapiens, UniProt Q9UQL6). Put plainly: Inhibition of HDAC5 (unknown origin) using Boc-Lys(trifluoroacetyl)-AMC as substrate by fluorescence assay.
For a further data set, the target named is Histone deacetylase 4 (Homo sapiens, UniProt P56524). Put plainly: Inhibition of HDAC4 (unknown origin) using Boc-Lys(trifluoroacetyl)-AMC as substrate by fluorescence assay.
The next data set concerns the target Histone deacetylase 3 (Homo sapiens, UniProt O15379). Put plainly: Inhibition of HDAC3 (unknown origin) using fluorogenic peptide from p53 residues (379 to 382) (RHKK(Ac)) as substrate by fluorescence assay.
In another data set the target is Histone deacetylase 2 (Homo sapiens, UniProt Q92769).
Data set [8] has as its target T1, Histone deacetylase 1. Put plainly: Inhibition of HDAC1 (unknown origin) using fluorogenic peptide from p53 residues (379 to 382) (RHKK(Ac)) as substrate by fluorescence assay.
Data set [9] concerns the target T1, Histone deacetylase 1. The experiment in a line: Inhibition of human recombinant HDAC1 using Ac-Leu-Gly-Lys(Ac)AMCA as substrate after 30 mins by fluorescence assay.
Data set [10] addresses T2, Proto-oncogene tyrosine-protein kinase Src. The experiment in a line: Inhibition of c-Src (unknown origin) after 10 mins by fluorimetric assay.
In data set [11] the target is Tyrosine-protein kinase ABL1 (Homo sapiens, UniProt P00519). The experiment in a line: Inhibition of c-Abl (unknown origin).
Sequence of Tyrosine-protein kinase ABL1 (P00519 whole entry): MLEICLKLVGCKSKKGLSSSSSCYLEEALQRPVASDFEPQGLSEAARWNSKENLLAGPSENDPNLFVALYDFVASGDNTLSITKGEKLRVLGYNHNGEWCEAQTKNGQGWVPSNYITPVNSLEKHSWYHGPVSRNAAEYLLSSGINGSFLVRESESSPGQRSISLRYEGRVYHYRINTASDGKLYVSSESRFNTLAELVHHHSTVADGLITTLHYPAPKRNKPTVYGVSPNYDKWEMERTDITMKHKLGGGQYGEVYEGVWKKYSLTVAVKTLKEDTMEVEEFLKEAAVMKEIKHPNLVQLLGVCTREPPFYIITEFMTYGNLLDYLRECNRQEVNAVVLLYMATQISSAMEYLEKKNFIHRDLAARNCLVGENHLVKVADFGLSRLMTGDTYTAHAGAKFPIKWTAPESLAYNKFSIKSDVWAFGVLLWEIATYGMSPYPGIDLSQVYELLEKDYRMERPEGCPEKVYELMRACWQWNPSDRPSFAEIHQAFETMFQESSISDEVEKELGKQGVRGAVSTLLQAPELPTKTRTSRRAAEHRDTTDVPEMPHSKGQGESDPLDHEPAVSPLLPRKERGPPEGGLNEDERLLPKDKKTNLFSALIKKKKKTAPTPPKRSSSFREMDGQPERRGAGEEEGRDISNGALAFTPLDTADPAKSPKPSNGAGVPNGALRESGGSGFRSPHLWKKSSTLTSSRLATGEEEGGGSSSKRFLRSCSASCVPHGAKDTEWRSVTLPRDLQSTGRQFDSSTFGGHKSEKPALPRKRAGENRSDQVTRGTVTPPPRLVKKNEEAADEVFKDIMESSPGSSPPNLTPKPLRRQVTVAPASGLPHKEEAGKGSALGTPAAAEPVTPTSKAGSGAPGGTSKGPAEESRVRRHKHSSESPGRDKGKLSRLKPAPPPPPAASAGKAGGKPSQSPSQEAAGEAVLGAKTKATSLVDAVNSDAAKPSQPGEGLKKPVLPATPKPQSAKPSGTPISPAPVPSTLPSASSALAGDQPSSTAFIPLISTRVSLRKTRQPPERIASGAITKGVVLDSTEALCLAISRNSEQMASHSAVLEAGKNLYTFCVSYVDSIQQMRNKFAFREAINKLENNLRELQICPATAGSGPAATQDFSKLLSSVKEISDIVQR

T1 sequence (Q13547 whole entry): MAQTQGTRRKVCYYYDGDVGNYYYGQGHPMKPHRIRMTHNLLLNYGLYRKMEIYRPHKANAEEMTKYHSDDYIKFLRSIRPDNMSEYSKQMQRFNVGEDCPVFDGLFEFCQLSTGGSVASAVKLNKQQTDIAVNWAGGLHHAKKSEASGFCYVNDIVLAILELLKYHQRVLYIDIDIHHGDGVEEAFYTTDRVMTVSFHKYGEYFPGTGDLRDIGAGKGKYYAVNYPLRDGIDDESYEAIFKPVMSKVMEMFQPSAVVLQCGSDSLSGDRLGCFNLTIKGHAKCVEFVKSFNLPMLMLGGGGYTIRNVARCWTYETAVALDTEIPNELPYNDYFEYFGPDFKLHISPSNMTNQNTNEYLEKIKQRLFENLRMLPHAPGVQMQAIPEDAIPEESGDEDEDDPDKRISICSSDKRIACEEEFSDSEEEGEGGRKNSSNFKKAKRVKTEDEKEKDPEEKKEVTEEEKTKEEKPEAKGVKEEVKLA
Sequence of Histone deacetylase 5 (Q9UQL6 whole entry): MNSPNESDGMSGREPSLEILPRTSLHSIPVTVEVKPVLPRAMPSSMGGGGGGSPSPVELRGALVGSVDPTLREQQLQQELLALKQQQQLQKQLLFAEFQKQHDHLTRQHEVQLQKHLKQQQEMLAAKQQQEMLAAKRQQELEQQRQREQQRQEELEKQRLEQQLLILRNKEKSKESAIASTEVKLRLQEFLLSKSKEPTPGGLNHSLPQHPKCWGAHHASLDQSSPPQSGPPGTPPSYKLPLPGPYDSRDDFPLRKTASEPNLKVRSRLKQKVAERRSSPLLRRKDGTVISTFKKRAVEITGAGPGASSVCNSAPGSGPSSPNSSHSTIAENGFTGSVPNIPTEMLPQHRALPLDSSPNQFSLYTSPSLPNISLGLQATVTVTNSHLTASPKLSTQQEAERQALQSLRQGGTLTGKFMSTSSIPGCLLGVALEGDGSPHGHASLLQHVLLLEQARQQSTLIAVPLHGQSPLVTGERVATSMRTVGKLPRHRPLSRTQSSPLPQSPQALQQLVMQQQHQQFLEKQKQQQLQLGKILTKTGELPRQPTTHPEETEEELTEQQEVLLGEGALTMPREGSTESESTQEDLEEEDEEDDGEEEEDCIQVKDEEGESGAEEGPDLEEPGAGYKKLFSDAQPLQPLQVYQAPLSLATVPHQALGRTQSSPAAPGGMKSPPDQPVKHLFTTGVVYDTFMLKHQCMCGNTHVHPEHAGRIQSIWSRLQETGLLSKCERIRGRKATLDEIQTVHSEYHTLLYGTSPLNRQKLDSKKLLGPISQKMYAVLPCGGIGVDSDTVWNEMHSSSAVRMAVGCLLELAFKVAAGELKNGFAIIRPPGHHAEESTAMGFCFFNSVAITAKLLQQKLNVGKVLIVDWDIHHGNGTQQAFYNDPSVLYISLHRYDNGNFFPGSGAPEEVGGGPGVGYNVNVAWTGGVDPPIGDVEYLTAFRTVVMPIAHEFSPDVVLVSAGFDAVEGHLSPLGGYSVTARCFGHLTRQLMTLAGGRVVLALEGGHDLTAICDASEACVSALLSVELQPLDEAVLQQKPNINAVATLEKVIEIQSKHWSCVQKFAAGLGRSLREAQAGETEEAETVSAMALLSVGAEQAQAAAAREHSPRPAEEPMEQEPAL
Sequence of Histone deacetylase 8 (Q9BY41 whole entry, the tested form may be a part): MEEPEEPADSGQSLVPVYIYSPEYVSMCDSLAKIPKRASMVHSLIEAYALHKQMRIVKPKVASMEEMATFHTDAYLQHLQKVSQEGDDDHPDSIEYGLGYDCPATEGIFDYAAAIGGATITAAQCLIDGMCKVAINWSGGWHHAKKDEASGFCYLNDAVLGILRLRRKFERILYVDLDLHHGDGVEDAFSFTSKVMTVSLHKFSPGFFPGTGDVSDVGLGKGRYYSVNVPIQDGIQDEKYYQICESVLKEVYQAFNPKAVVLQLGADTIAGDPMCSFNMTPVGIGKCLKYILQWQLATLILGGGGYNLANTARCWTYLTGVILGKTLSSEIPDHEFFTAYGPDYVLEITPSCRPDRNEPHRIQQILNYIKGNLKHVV
Sequence of Histone deacetylase 3 (O15379 whole entry, the tested form may be a part): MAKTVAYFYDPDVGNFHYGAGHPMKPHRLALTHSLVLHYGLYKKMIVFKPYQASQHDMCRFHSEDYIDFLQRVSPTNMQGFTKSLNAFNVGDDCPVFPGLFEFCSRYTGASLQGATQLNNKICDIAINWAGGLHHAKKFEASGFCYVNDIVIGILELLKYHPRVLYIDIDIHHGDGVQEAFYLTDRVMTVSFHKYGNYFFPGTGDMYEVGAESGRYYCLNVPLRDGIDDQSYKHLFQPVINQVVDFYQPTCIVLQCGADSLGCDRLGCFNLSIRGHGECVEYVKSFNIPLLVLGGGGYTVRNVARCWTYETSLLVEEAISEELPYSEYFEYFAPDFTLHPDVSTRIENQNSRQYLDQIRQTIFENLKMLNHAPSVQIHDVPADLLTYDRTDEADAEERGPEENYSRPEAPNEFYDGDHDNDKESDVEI
Sequence of Polyamine deacetylase HDAC10 (Q969S8 whole entry, the tested form may be a part): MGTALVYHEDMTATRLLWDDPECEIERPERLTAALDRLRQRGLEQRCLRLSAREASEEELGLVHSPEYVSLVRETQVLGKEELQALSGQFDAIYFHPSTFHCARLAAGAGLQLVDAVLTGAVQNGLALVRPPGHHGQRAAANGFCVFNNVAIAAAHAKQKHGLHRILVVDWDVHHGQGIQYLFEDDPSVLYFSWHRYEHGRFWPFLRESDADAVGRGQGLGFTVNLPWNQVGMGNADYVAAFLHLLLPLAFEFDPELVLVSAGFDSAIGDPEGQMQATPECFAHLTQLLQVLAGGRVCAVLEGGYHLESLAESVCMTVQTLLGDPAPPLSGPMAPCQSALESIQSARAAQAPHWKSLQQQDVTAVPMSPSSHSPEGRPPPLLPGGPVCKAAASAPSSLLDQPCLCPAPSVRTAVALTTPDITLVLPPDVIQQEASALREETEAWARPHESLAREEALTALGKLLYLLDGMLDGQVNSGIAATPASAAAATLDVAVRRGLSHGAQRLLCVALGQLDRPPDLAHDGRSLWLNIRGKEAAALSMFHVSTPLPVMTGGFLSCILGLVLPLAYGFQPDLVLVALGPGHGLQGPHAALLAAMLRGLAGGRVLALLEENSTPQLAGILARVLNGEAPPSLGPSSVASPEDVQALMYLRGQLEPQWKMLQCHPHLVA

As for `O=C(CCCCCn1nncc1-c1ccccc1)NO`, on Histone deacetylase 1 [1], the inhibition constant (Ki) (in general, a measure of affinity in units of concentration, obtained from inhibition or displacement) amounted to 45 nM.

Turning to `Nc1ncnc2c1c(-c1ccc(Cl)cc1)nn2-c1cccc(-c2cnnn2Cc2cccc(-c3ccccc3)c2)c1`, the selectivity ratio in [2] was 0.9. Moreover, the GI50 (commonly the concentration that inhibits growth by half) in the data set with HMEC is 4300 nM; with SK-BR-3 (Homo sapiens, SK-BR-3, 72 h), 4800 nM.

With `Nc1ncnc2c1c(-c1ccc(Cl)cc1)nn2-c1cccc(-c2cn(CCCCCC(=O)NO)nn2)c1`, the inhibitory constant (Ki) at Histone deacetylase 1 [1] worked out at 0.62 nM; in data set [3] it was 371 nM.

As for `Nc1ncnc2c1c(-c1ccc(Cl)cc1)nn2-c1cccc(-c2cnnn2CCCCCC(=O)NO)c1`, the 50% growth inhibitory concentration (GI50) in the data set on SW-620 worked out at 250 nM; in the data set on Malme-3M, 70 nM; in the data set on HCT-116 it was 220 nM; in the data set with Hs-578T, 170 nM; in the data set on MDA-MB-231, 390 nM; in the data set with DU-145, 390 nM. The GI50 with MCF7 stood at 350 nM; with U-251, 280 nM; with KM12, 470 nM; in data set [5], 260 nM; in the data set on HMEC, 4700 nM; with SK-BR-3 (Homo sapiens, SK-BR-3, 72 h), 200 nM. For the same compound, the inhibition constant Ki worked out at 504 nM in data set [4]; 0.26 nM at Histone deacetylase 1 [9]; 138 nM in data set [10]; 2350 nM in [11]; 0.26 nM at Histone deacetylase 1 [1]; 138 nM in data set [3]. Besides, the IC50 (commonly the concentration at which inhibition is half-maximal) on Histone deacetylase 11 worked out at 224 nM; in data set [6], 51 nM; against Histone deacetylase 9, 28000 nM; on Histone deacetylase 8, 2310 nM; in data set [7] it was 2.7 nM; on Histone deacetylase 5, 3890 nM. Also, the IC50 at Histone deacetylase 4 is 3980 nM; against Histone deacetylase 3 it was 19 nM; on Histone deacetylase 2, 231 nM; against Histone deacetylase 1 [8], 86 nM.

With `Nc1ncnc2c1c(-c1ccc(Cl)cc1)nn2-c1cccc(-c2cnnn2CCCCCCC(=O)NO)c1`, the inhibitory constant (Ki) was found to be 0.82 nM on Histone deacetylase 1 [9] and 190 nM in data set [10].

As to `Nc1ncnc2c1c(-c1ccc(Cl)cc1)nn2-c1cccc(-c2cnnn2CCCCCCCC(=O)NO)c1`, at Histone deacetylase 1 [9], the inhibition constant (Ki) came to 9.8 nM.

Take `Nc1ncnc2c1c(-c1ccc(Cl)cc1)nn2-c1cccc(-c2cnnn2Cc2ccc(/C=C/C(=O)NO)cc2)c1`: the results for the inhibition constant (Ki) (at Histone deacetylase 1 [9]; in data set [10]) were 35 nM and 4300 nM, respectively.

In the case of `Nc1ncnc2c1c(-c1ccc(Cl)cc1)nn2-c1cccc(-c2cnnn2Cc2cccc(/C=C/C(=O)NO)c2)c1`, the inhibitory constant (Ki) at Histone deacetylase 1 [9] was 23 nM.

For the compound `Nc1ncnc2c1c(-c1ccc(Cl)cc1)nn2-c1ccccc1`, the Ki in data set [3] was found to be 605 nM.

`Cc1nc(Nc2ncc(C(=O)Nc3c(C)cccc3Cl)s2)cc(N2CCN(CCO)CC2)n1` [DASATINIB]: the GI50 came to 8430 nM with SW-620; 6610 nM in the data set on Malme-3M; 3700 nM with HCT-116; 30 nM in the data set on Hs-578T; 20 nM with MDA-MB-231; 160 nM in the data set with DU-145. Besides, the GI50 was determined as 8320 nM with MCF7, 2810 nM in the data set on U-251, 5700 nM in data set [5] and 1800 nM in the data set on HMEC.

For the compound `O=C(CCCCCCC(=O)Nc1ccccc1)NO` [VORINOSTAT], the GI50 in the data set with HMEC stood at 5800 nM; in the data set with SK-BR-3, 1200 nM.
